Test results taken from US8546615B2, “Solid dapoxetine” (Symed Labs Limited, priority 2009, dated 2013).

Assay: Storage/thermal stability of the solid form
Type: physicochemical
Conditions: stable for any period of time, no test described

| SMILES | temperature below which the solid is stable |
| --- | --- |
| CN(C)[C@@H](CCOc1cccc2ccccc12)c1ccccc1 (racemic) [solid racemic dapoxetine] | below 45 °C |
| CN(C)[C@@H](CCOc1cccc2ccccc12)c1ccccc1 (single isomer, unassigned) [solid dapoxetine S enantiomer] | below 60 °C |
